Literature values as cited in patent publication US20110287109A1 (MAX INTERNATIONAL, LLC, priority 2010, published 2011).

How the values were obtained:
[1] = test system: glutathione levels; settings: mice, 8 mmol/kg i.p.
[2] = test system: mice exposed to cyclophosphamide; settings: 8 mmol/kg
[3] = test system: acetaminophen hepatic and renal toxicity; settings: mice, 2 g/kg
[4] = test system: irradiation-induced bowel injury; settings: mice, 1 g/kg
[5] = administered directly to humans
[6] = test system: exercise capacity; settings: healthy humans, orally, 8-10 g per day by an adult
[7] = test system: ATP levels; settings: dogs subjected to ischemia (heart attack model), about 3 g/day for at least 5 days

Row | SMILES | increase of glutathione level in heart ([1]; heart) | increase of glutathione level in muscle tissue ([1]; muscle tissue) | delivery of protective amounts of cysteine [2] | protection against acetaminophen hepatic and renal toxicity [3] | protection against irradiation-induced bowel injury [4] | toxicity over wide dosage ranges [5] | exercise capacity [6] | ATP levels [7]
1 | O=C(O)[C@@H]1CSC(C(O)C(O)C(O)CO)N1 (stereo partly drawn) [RibCys, 2(R,S)-D-ribo-(1′,2′,3′,4′-tetrahydroxybutyl)thiazolidine-4(R)-carboxylic acid] | 1.5 × | 2.5 × | deliver effective protective amounts of cysteine | protect mice against acetaminophen hepatic and renal toxicity | protect mice against irradiation-induced bowel injury |  |  | 
2 | O=C[C@H](O)[C@H](O)[C@H](O)CO [ribose] |  |  |  |  |  | essentially non-toxic | increase exercise capacity | effectively restored and maintained ATP levels
